“Also recorded” adds a separate entry of the source.

Experiment [1] relates to T1, tubulin.
T1 construct: Activity in room temperature assay; other: no polymerization in the absence of drug; other: GTP-only system, critical concentrations
The experiment can be described thus: Enhancement of glutamate- or MAP-induced tubulin assembly, turbidimetric curves (FIGS. 4 and 5). In kind it is biochemical. The protocol:
In those cases where acceleration of tubulin polymerization is observed, an IC50 value for inhibition of polymerization is of course not derivable. Results for such compounds may be presented in the form of turbidimetric curves, e.g. as presented in FIGS. 4 and 5 for representative compounds 13 and 18.
FIG. 4: Each reaction mixture contained 0.8 M glutamate (pH 6.6), 0.4 mM GTP, 12 μM (1.2 mg/ml) tubulin, 4% (v/v) dimethyl sulfoxide, and compound 13 or 18 as indicated. Baselines were established at 0°, and at time zero the temperature controller was set at 26°. At the time indicated by the dashed line, the temperature controller was set at 0°. A. Curve 1, no drug; curve 2, 2 μM compound 13; curve 3, 5 μM 7; curve 4, 10 μM 7; curve 5, 40 μM 7; curve 6, 40 μM 14. B. Curve 1, no drug; curve 2, 2 μM compound 18; curve 3, 5 μM 18; curve 4, 10 μM 18; curve 5, 40 μM 18.
FIG. 5: Each reaction mixture contained 0.1 M Mes (pH 6.9 with NaOH in 0.5 M stock solution), 0.1 mM GTP, 10 μM (1.0 mg/ml) tubulin, 0.75 mg/ml heat-treated MAPs, 4% dimethyl sulfoxide, and drug as indicated. […] There was no change in turbidity in any reaction mixture. At this point the temperature controller was set at 10°, and subsequent temperature changes, as indicated, were made at the times indicated by the vertical dashed lines. Curve 1, no drug; curve 2, 10 μM paclitaxel; curve 3, 10 μM compound 13; curve 4, 20 μM 7; curve 5, 40 μM 7; curve 6, 10 μM compound 18.

In experiment [2] the test system is T2, tubulin.
T2 construct: other: 1.0 M glutamate, 10 μM tubulin; Effect on tubulin polymerization / microtubule assembly
In words: Tubulin polymerization inhibition in vitro (turbidity at 350 nm). In kind it is biochemical. The protocol:
Microtubule assembly is followed in a temperature controlled recording spectrophotometer. For details and a discussion, see R. D'Amato et al., Proc Natl Acad Sci USA, 91:3964-3968 (1994).
A typical reaction mixture, which will have a final reaction volume of […], contains 1.0 M monosodium glutamate (pH 6.6), 1.0 mg/ml (10 μM) tubulin, 1.0 MM MgCl2, 4% (v/v) dimethylsulfoxide, and a compound to be tested at the desired concentration (typically 0.1 to 100 μM). The reaction mixtures are incubated for 15 min. at 37° C. and then chilled on ice. After addition of 10 μl 12.5 mM GTP (and, optionally, 0.33 mg/ml microtubule-associated proteins, or MAPs) to initiate polymerization, each reaction mixture is transferred to a cuvette at 0° C., and a baseline established. At time zero, the temperature controller of the spectrophotometer is set to a target temperature, typically between 25 and 37° C. Microtubule assembly is monitored by observing an increase in turbidity at 350 nm as the temperature of the reaction mixture rises to the set target temperature.
The results are presented in Table 1 as IC50 values (μM) for inhibition of tubulin polymerization. Alternatively, inhibition of microtubule assembly can be detected by transmission electron microscopy, as described in U.S. Pat. No. 5,504,074 which is hereby incorporated by reference in its entirety.

Experiment [3] concerns T1, tubulin. The experiment can be described thus: Room temperature tubulin assembly assay (favorable reaction conditions, glutamate-dependent). It counts as biochemical. The note with it: no polymerization in the absence of drug. The protocol:
Previous observations with paclitaxel analogs indicate that differences between compounds are magnified in restrictive reaction conditions and minimized in favorable reaction conditions. […] However, under favorable reaction conditions (room temperature) the quantitative difference between paclitaxel and sarcodictyin A was only 2.5-fold. […] The critical concentration with 10 μM sarcodictyin A under the reaction conditions shown in FIG. 6B is 1.0 mg/ml in the GTP-only system.

Experiment [4] relates to T1, tubulin. The experiment can be described thus: Polymer morphology by electron microscopy. In kind it is biochemical. The text has this: It was possible that compounds 13 and 18 were not actually acting like paclitaxel in enhancing microtubule assembly and in stabilizing the microtubules formed in the course of the turbidity studies shown in FIG. 4, but that these agents were causing formation of polymers of aberrant morphology and temperature stability different from microtubules, such as occurs with vinca alkaloids. Polymer morphology was examined by electron microscopy. […] Even more important, when the reaction mixtures were returned to 0° C. for 15 min, no microtubules were visualized on grids prepared from the reaction mixture without drug.

Experiment [5] concerns T1, tubulin. The experiment can be described thus: Critical concentration of tubulin for assembly, turbidimetric (FIG. 6). The note with it: for Critical concentration of tubulin, GTP-dependent, MAP-independent assembly: no MAPs. It counts as biochemical. The protocol: FIG. 6 presents critical concentrations, obtained at 30° C., of tubulin with paclitaxel and compound 13. A: MAPs -and GTP-dependent assembly without drug and in the presence of 10 μM paclitaxel or 10 μM 13. B: GTP-dependent, MAP-independent assembly with 10 μM paclitaxel or 10 μM 13.
Measurement of the critical concentration with and without MAPs with paclitaxel, and again with 13, was therefore carried out to provide some idea of the comparative activity of these agents. The data are presented in FIG. 6, which yield critical concentrations, obtained at 30° C., of 1.4, 0.06, and 0.50 mg/ml for MAP-and GTP-dependent assembly without drug and in the presence of 10 μM paclitaxel or 10 μM 13, respectively, and 0.20 and 1.4 mg/ml for GTP-dependent, MAP-independent assembly with 10 μM paclitaxel or 10 μM 13. […] (A constant weight ratio of MAPs to tubulin of 1:3 was used, because the suboptimal concentration of MAPs caused greater differences in the critical concentrations obtained.) Reaction mixtures (0.25 ml) contained 0.1 M Mes (pH 6.9), 100 μM GTP, 4% dimethyl sulfoxide, the indicated tubulin concentration (with heat-treated MAPs in 1:3 weight ratio to the tubulin, panel A only), and either 10 μM paclitaxel (▴), 10 μM compound 13 (◯), or no drug (▾). Cuvette contents were equilibrated at 0°, drugs were added, temperature was jumped to 30° (about one min), and the turbidity changes after a 20 min incubation measured.

The subject of experiment [6] is T1, tubulin. In words: Tubulin polymerization inhibition in vitro (turbidity at 350 nm). It counts as biochemical. Further details: key: *: Accelerates tubulin polymerization. The note with it: no IC50 derivable.
Experiment [7] deals with tubulin polymer. The experiment can be described thus: Inhibition of [3H]paclitaxel binding to tubulin polymer.
Experiment [8] has as its system T1, tubulin. In words: Enhancement of glutamate- or MAP-induced tubulin assembly, turbidimetric curves (FIGS. 4 and 5). It counts as biochemical. The source holds these as a separate data set.
Experiment [9] concerns tubulin polymer. The note with it: cited from earlier work.
Experiment [10] deals with T1, tubulin. To be noted: favorable reaction conditions (room temperature); cited from earlier work.
The mark [11] stands for this setting: GTP-only system, critical concentrations.

In the case of `CCOc1cc2c(cc1OC(C)=O)C(=O)CC[C@@H]1[C@@H]2CC[C@]2(C)[C@@H](OC(C)=O)CC[C@@H]12` [Compound 13, B-Homo-3,17β-diacetoxy-2-ethoxyestra-1,3,5(10)-triene-6-one], the “Effect on glutamate- and MAP-induced tubulin assembly” value with tubulin [1] is given as “paclitaxel-like properties”. For the same molecule, the “Effect on MAP-induced tubulin assembly” value with tubulin [1] (0.75 mg/ml MAPs, 1.0 mg/ml tubulin, 25° C.) is on record as “enhanced tubulin assembly; also recorded: significantly less than that of paclitaxel”. In the experiment on tubulin [2], the “Effect on tubulin polymerization / microtubule assembly” value is given as “stimulate microtubule assembly”. In the experiment on tubulin [3], the “Activity in room temperature assay” value was “inactive”. Moreover, the “Microtubules formed, seen by electron microscopy” value in the experiment on tubulin [4] was “abundant microtubules were formed that were indistinguishable from those formed in the absence of drug”. Also, the “Cold stable microtubules after return to 0° C. for 15 min” value in the experiment on tubulin [4] (40 μM 13 or 10 μM paclitaxel) was “abundant cold stable microtubules were observed”. Moreover, the “Assembly of microtubules without MAPs” value in the experiment on tubulin [5] (10 μM 13, 40 μM tubulin) was “assembly of microtubules was observed without MAPs”. Besides, the “Critical concentration of tubulin, MAP- and GTP-dependent assembly” value with tubulin [5] (30° C., 10 μM drug, MAPs:tubulin 1:3 by weight) stood at 0.50 mg/mL. The “Critical concentration of tubulin, GTP-dependent, MAP-independent assembly” value in the experiment with tubulin [5] (30° C., 10 μM drug) amounted to 1.4 mg/mL. Besides, the “Tubulin polymerization inhibition, symbol instead of IC50” value with tubulin [6] is given as “*”. In the experiment with tubulin polymer [7], the “Inhibition of [3H]paclitaxel binding to tubulin polymer” value was “only minimally inhibits” and the “Maximal inhibition of [3H]paclitaxel binding to tubulin polymer” value was “about 20%”. Further, the “Tubulin assembly in the absence of GTP” value with tubulin [8] is “has not been observed; also recorded: not without GTP”. In addition, in the experiment on tubulin [8] (10 μM tubulin, 40 μM compound 13 or 10 μM paclitaxel), the “Assembly reaction when either MAPs or GTP was omitted” value is listed as “no reaction occurred”.

Regarding `COC(=O)/C1=C/[C@@H]2[C@@H](C(C)C)CC=C(C)[C@@H]2C[C@H](OC(=O)/C=C/c2cn(C)cn2)[C@]2(C)C=C[C@@]1(O)O2` [sarcodictyin A], the “Inhibition of paclitaxel binding to tubulin polymer” value in the experiment on tubulin polymer [9] is recorded as “only weakly inhibits”. Moreover, the “Critical concentration of tubulin, GTP-dependent, MAP-independent assembly” value in the experiment on tubulin [5] (30° C., 10 μM drug) was found to be 1.0 mg/mL. For the same molecule, in the experiment with tubulin [5] (setting [11]), the “Activity relative to compound 13 (% more active)” value stood at 40% and the “Activity relative to paclitaxel (fold less active)” value is listed as “about 5 fold”. Moreover, the “Quantitative difference between paclitaxel and sarcodictyin A” value in the experiment with tubulin [10] is given as 2.5 fold.

Source of the values: US6696436B1, “B-homoestra-1,3,5(10)-trienes as modulators of tubulin polymerization” (The United States of America as represented by the …, priority 1999, dated 2004).
